Results published in ChEMBL document CHEMBL4002553, “Dragmacidins G and H, Bisindole Alkaloids Tethered by a Guanidino Ethylthiopyrazine Moiety, from a Lipastrotethya sp. Marine Sponge” (J Nat Prod, 2016).

tested on: HeLa; experiment: Cytotoxicity against human HeLa cells after 72 hrs by MTT assay; type: functional, cell-based

**Q.** Which IC50 does the source give for `O=C(c1nc(-c2c[nH]c3cc(Br)ccc23)c[nH]1)c1c[nH]c2cc(O)ccc12` [BROMOTOPSENTIN] here?
**A.** Its IC50 is 1.7 µM.

**Q.** With `O=C(c1nc(-c2c[nH]c3ccccc23)c[nH]1)c1c[nH]c2cc(O)ccc12` [TOPSENTIN] as the compound, how does the IC50 read?
**A.** Its IC50 is 4.4 µM.

**Q.** `N=C(N)NCCSc1nc(-c2c[nH]c3cc(Br)ccc23)cnc1-c1c[nH]c2cc(Br)ccc12` was tested. Which IC50 did it give?
**A.** The IC50 was 4.2 µM.

**Q.** With `N=C(N)NCCSc1nc(-c2c[nH]c3ccccc23)cnc1-c1c[nH]c2cc(Br)ccc12` as the compound, how does the IC50 read?
**A.** Its IC50 is 4.6 µM.
